Here are results for one compound from patent publication US20250319053A1, “INHIBITORS OF THE PEPTIDYL-PROLYL CIS/TRANS ISOMERASE (PIN1), COMBINATIONS AND USES THEREOF” (DANA-FARBER CANCER INSTITUTE, INC., priority 2021, published 2025).

Data set [1] can be described thus: Body weight of Pin1i-2 treated non-tumor-bearing B6 mice. It counts as in vivo, mouse. The conditions noted are these: Day 0 = 100. As for the experimental part:
Table 1 is a table of blood test results together with body weight of Pin1i−2 treated non-tumor-bearing B6 mice. See also FIG. 1A-FIG. 1G, FIG. 8A-FIG. 8O, and FIG. 9A-9L. WT B6 mice (non-tumor-bearing mice) were treated with vehicle or Pin1i−2 (20, 40, or 60 mg/kg, i.p., daily) for 5 weeks, followed by examining mice body weight or the RBC, Hb, Plate, and kidney and liver function using blood tests at 3 weeks and 5 weeks (n=5).

For the next data set, the target named is Pin1 (Homo sapiens, UniProt Q13526). The experiment in a line: Immunoblotting for Pin1 and substrate oncoproteins in CAFs. In kind it is cell-based. The settings on record: 72 hrs. Also on record: endogenous in cells. As for the experimental part: Cultured cells were lysed in RIPA buffer (50 mM Tris-HCl, pH 7.2, 150 mM NaCl, 1% NP40, 0.1% sodium dodecyl sulfate (SDS), 0.25% Na-deoxycholate) with freshly added phosphatase inhibitors containing 5 mM NaF and 0.2 mM sodium orthovanadate (NA3VO4), and proteinase inhibitors containing 2 μg/mL Aprotinin, 2 μg/mL Leupeptin, 2 μg/mL Pepstatin A, 1 mM DTT (dithiothreitol), 0.5 mM 4-(2-aminoethyl)-benzenesulfonyl fluoride (AEBSF), and 20 mM Chymotrypsin, and then mixed with the SDS sample buffer and loaded onto a gel after boiling for 10 minutes at 95° C. The proteins were resolved by polyacrylamide gel electrophoresis and transferred to PVDF membrane. The transferred membrane was washed three times with Tris-buffered saline containing 0.1% Tween 20 (TBST). After blocking with TBST containing 5% milk or 3% bovine serum albumin (BSA) for 1 h room temperature, the membrane was incubated with the appropriate primary antibody (diluted 1:500-1:10000) in 5% milk or 3% BSA-containing TBST at 4° C. overnight. […] After three extensive washes with TBST for a total of 30 min, the immunoblots were visualized by enhanced chemi-luminescence. Immunoblotting results were quantified using ImageJ (NIH).
In general terms: A western blot detects proteins with antibodies after separation by electrophoresis.

Pin1, sequence (Q13526 whole entry): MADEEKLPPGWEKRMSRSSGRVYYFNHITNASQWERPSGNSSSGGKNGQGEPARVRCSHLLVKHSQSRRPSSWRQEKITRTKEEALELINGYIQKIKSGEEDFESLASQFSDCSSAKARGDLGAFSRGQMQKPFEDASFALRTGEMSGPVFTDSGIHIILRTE

As to `CC(C)(C)CN(C(=O)CCl)C1CCS(=O)(=O)C1` (stereo not shown) [Pin1i−2, sulfopin], the Body weight in data set [1] (20 mg/kg i.p. daily, 3 weeks) was 105.5371%; in data set [1] (20 mg/kg i.p. daily, 5 weeks), 107.5%; in data set [1] (40 mg/kg i.p. daily, 3 weeks), 107.9%; in data set [1] (40 mg/kg i.p. daily, 5 weeks), 106.7%; in data set [1] (60 mg/kg i.p. daily, 3 weeks), 104.8%; in data set [1] (60 mg/kg i.p. daily, 5 weeks) it was 107.3%. Also, at Pin1, the “Pin1 and its substrate oncoproteins (IB)” value is “dose-dependently reduced Pin1 and its many substrate oncoproteins”.
